Earlier results as cited in publication PMC10323144, “Garbage in, garbage out: how reliable training data improved a virtual screening approach against SARS-CoV-2 MPro” (Frontiers in Pharmacology, 2023).

System: MPro
Conditions: compiled from peer-reviewed sources (287 compounds) ref the 18 original articles; cited from earlier work

Structure (SMILES)	Class (MPro activity class)
CN1C(=O)C(=NNC(=O)c2ccc3c(c2)OCO3)c2ccccc21 [LASSBio-1652 (16)]	0 (compounds with IC50 > 20 μM, percentage inhibition <80% at 20 µM or 50 μM, or percentage enzyme inhibition <50% at 10 µM were labelled as INACTIVE)
Cn1c(=O)cc(N2CCC[C@@H](N)C2)n(Cc2cc(F)ccc2C#N)c1=O [Trelagliptin]	0 (compounds with IC50 > 20 μM, percentage inhibition <80% at 20 µM or 50 μM, or percentage enzyme inhibition <50% at 10 µM were labelled as INACTIVE)
O=C(CCl)N1CCN(Cc2cc(Cl)ccc2CNC(=O)N2CCOCC2)CC1 [STU-CHA-6cae54d3-1]	1 (Compounds with IC50 < 10 µM or with a percentage of enzyme inhibition >50% at 10 µM were labelled as ACTIVE)
O=C(CCl)N1CCN(C(c2ccccc2)C2CCCCC2)CC1 (centres unmarked) [GIA-UNK-20b63697-6]	1 (Compounds with IC50 < 10 µM or with a percentage of enzyme inhibition >50% at 10 µM were labelled as ACTIVE)
CC(C)CC(NC(=O)C1OC1C(=O)O)C(=O)NCCCCN=C(N)N (centres unmarked) [E-64]	0 (compounds with IC50 > 20 μM, percentage inhibition <80% at 20 µM or 50 μM, or percentage enzyme inhibition <50% at 10 µM were labelled as INACTIVE)
CN(C)C(=O)c1cc2cnc(Nc3ccc(N4CCNCC4)cn3)nc2n1C1CCCC1 [RIBOCICLIB]	0 (compounds with IC50 > 20 μM, percentage inhibition <80% at 20 µM or 50 μM, or percentage enzyme inhibition <50% at 10 µM were labelled as INACTIVE)
O=c1sn(-c2cccc3ccccc23)c(=O)n1Cc1ccccc1 [Tideglusib]	1 (Compounds with IC50 < 10 µM or with a percentage of enzyme inhibition >50% at 10 µM were labelled as ACTIVE)
O=C(O)[C@H]1O[C@@H](Oc2cc3oc(-c4ccccc4)cc(=O)c3c(O)c2O)[C@H](O)[C@@H](O)[C@@H]1O [Baicalin]	0 (compounds with IC50 > 20 μM, percentage inhibition <80% at 20 µM or 50 μM, or percentage enzyme inhibition <50% at 10 µM were labelled as INACTIVE)
O=C(CCl)N1CCN(S(=O)(=O)c2ccsc2)CC1 [MAT-POS-ee51dedd-2]	1 (Compounds with IC50 < 10 µM or with a percentage of enzyme inhibition >50% at 10 µM were labelled as ACTIVE)
O=C(CCl)N1CCN(Cc2cccc3ccccc23)CC1 [MED-COV-4280ac29-31]	1 (Compounds with IC50 < 10 µM or with a percentage of enzyme inhibition >50% at 10 µM were labelled as ACTIVE)
N#C[C@@H]1C[C@@H]2C[C@@H]2N1C(=O)[C@@H](N)C12CC3CC(CC(O)(C3)C1)C2 [Saxagliptin]	0 (compounds with IC50 > 20 μM, percentage inhibition <80% at 20 µM or 50 μM, or percentage enzyme inhibition <50% at 10 µM were labelled as INACTIVE)
Cc1nnc(C(=O)NC(C)(C)c2nc(C(=O)NCc3ccc(F)cc3)c(O)c(=O)n2C)o1 [Raltegravir]	0 (compounds with IC50 > 20 μM, percentage inhibition <80% at 20 µM or 50 μM, or percentage enzyme inhibition <50% at 10 µM were labelled as INACTIVE)
O=C(O)C(S)=Cc1c[nH]c2ccc(F)cc12 [PD151746]	0 (compounds with IC50 > 20 μM, percentage inhibition <80% at 20 µM or 50 μM, or percentage enzyme inhibition <50% at 10 µM were labelled as INACTIVE)
O=c1[nH]cc(-c2cc(-c3cc(Cl)cc(OCc4cccc(F)c4)c3)c(=O)n(-c3cccnc3)c2)c(=O)[nH]1 [compound 19]	1 (Compounds with IC50 < 10 µM or with a percentage of enzyme inhibition >50% at 10 µM were labelled as ACTIVE)
O=c1cc(-c2ccccc2)oc2ccc(O)c(O)c12 [5,6-Dihydroxyflavone]	0 (compounds with IC50 > 20 μM, percentage inhibition <80% at 20 µM or 50 μM, or percentage enzyme inhibition <50% at 10 µM were labelled as INACTIVE)
O=C1N(Cc2cccc(Cl)c2)CCN1c1nccc2[nH]ncc12 [ALP-POS-91609ae9-3]	1 (Compounds with IC50 < 10 µM or with a percentage of enzyme inhibition >50% at 10 µM were labelled as ACTIVE)
COc1ccc2c(c1)CN(C(=O)CCl)C(c1ccccc1)C2 (centres unmarked) [NAU-LAT-64f4b287-4]	1 (Compounds with IC50 < 10 µM or with a percentage of enzyme inhibition >50% at 10 µM were labelled as ACTIVE)
